From patent US20250228855A1, “PYRAZINAMIDE COMPOUNDS” (The General Hospital Corporation, priority 2022, published 2025)
pEC50, pKd: −log10 of the molar value. Where a name gives a salt, the structure may show the parent alone. Read-outs that look alike come from different tables or passages of the source. Marks after values point to notes of the source that are not given here.

How the values were obtained:
[1] = system: halofuginone-induced (HFG-induced) P. falciparum; assay: P. falciparum asexual blood stage growth assay, halofuginone-induced parasites; conditions: Plasmodium falciparum; for EC50: DD2, 72 h, read-out: Dd2 (EC50 [nM]) Halofuginone-induced; for pEC50: read-out: EC50 in halofuginone-induced parasites
Description: (§1) Asexual blood stage (ABS) P. falciparum parasites were treated with test compounds at varying concentrations for 72 h, followed by quantification of parasite growth by SYBR Green staining.
(§2) P. falciparum Asexual Blood Stage Growth Assay: This assay was performed as previously described.

[2] = system: P. falciparum Dd2-2D4; assay: P. falciparum asexual blood stage growth assay, wild-type Dd2-2D4; conditions: for EC50 / pEC50: Plasmodium falciparum; for EC50: DD2, 72 h, read-out: Dd2 (EC50 [nM]) wt; for pEC50: DD2, read-out: EC50 against Dd2-2D4 wildtype parasites
Description: as §1, §2

[3] = target: PfcProRS (Plasmodium falciparum, UniProt Q8I5R7); assay: TR-FRET ligand displacement assay with tracer MAT379, PfcProRS; type: binding; conditions: for pKd: absence of proline, read-out: KD for PfcProRS
[4] = target: T1, HsProRS (Homo sapiens, UniProt P07814); assay: TR-FRET ligand displacement assay with tracer MAT379, HsProRS; type: binding
T1 sequence (P07814 1007-1512 limits assumed): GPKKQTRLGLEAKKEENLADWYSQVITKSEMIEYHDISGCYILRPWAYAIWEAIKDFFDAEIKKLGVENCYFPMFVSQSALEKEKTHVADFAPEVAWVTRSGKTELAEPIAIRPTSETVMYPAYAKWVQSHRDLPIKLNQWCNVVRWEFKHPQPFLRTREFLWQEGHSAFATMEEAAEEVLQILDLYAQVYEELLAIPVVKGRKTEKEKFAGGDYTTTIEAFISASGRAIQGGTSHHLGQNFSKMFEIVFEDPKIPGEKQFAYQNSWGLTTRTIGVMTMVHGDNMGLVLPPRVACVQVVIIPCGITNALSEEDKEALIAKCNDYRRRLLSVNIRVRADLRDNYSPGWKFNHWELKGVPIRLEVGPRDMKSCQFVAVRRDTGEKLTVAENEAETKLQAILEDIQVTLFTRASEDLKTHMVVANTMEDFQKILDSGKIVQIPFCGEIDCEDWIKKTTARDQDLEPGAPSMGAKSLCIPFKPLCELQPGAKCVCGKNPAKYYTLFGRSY

[5] = PfcProRS (KD [nM]) +proline, 100 μM Pro
[6] = no proline, no ATP, read-out: PfcProRS (KD [nM]) −
[7] = no proline, no ATP, read-out: HsProRS (KD [nM]) −
[8] = read-out: HsProRS (KD [nM]) +proline, 100 μM Pro
[9] = KD for HsProRS in presence of 100 μM proline, 100 μM proline

Chain of PfcProRS (Q8I5R7 whole entry): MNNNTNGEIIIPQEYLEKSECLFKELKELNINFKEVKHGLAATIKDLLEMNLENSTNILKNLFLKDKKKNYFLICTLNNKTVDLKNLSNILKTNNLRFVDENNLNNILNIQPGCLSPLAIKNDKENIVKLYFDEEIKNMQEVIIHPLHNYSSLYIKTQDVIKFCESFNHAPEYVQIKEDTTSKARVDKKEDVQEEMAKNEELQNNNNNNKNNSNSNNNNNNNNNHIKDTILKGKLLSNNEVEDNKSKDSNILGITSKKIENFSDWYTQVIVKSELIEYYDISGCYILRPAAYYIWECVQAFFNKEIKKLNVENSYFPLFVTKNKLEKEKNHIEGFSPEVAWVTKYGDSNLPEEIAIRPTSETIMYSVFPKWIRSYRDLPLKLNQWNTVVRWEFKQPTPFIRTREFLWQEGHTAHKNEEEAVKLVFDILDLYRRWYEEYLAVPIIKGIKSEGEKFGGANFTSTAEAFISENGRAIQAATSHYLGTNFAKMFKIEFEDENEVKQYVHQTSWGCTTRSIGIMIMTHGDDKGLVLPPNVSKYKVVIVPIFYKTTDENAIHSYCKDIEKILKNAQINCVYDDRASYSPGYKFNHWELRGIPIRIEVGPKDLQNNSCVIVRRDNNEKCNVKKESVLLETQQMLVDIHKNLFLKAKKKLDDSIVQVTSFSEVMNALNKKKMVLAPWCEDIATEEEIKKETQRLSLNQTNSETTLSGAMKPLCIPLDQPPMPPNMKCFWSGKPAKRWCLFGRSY

Row | SMILES | EC50 [1] [nM] | Kd [3, 5] [nM] | Kd [3, 6] [nM] | pEC50 [1] | Kd [4, 7] [nM] | Kd [4, 8] [nM] | EC50 [2] [nM] | pEC50 [2] | further results
1 | CC(C)(C)OC(=O)N1CCC[C@H](OC(=O)NS(=O)(=O)N2CCN(C(=O)Nc3nccnc3C(=O)NC3Cc4ccccc4C3)CC2)[C@H]1CC(=O)Cn1cnc2cc(Br)c(Cl)cc2c1=O (relative stereo) [Compound 37, tert-butyl trans-2-(3-(7-bromo-6-chloro-4-oxoquinazolin-3(4H)-yl)-2-oxopropyl)-3-((((4-((3-((2,3-dihydro-1H-inden-2-yl)carbamoyl)pyrazin-2-yl)carbamoyl)piperazin-1-yl)sulfonyl)carbamoyl)oxy)piperidine-1-carboxylate] | 7150 | 175 | 246 | – | – | – | – | – | percent growth at 10 μM (Dd2 wt) ([2]; 10 μM, compound had <50% growth inhibition): 59% †
2 | O=C(NC1Cc2ccccc2C1)c1nccnc1NC(=O)C1CCCCC1 [Compound 2, 3-(cyclohexanecarboxamido)-N-(2,3-dihydro-1H-inden-2-yl)pyrazine-2-carboxamide, reference compound] | 1250 | 7.17 | 437 | 5.90 | 371 | 2.16 | 595 | 6.23 | Kd ([4]; read-out: HsProRS (KD [nM]) +ATP, +ATP): 954 nM; Kd ([3]; PfcProRS (KD [nM]) +ATP, 500 μM ATP): 291 nM
3 | CC1(C(=O)Nc2nccnc2C(=O)NC2Cc3ccccc3C2)CCCCC1 [Compound 4, N-(2,3-dihydro-1H-inden-2-yl)-3-(1-methylcyclohexane-1-carboxamido)pyrazine-2-carboxamide] | 540 | 3.42 | 275 | 6.27 | 221 | 2.55 | 180 | 6.74 | –
4 | CC(C)(C)OC(=O)N[C@H]1CC[C@@H](C(=O)Nc2nccnc2C(=O)NC2Cc3ccccc3C2)CC1 [Compound 6, tert-butyl ((1s,4s)-4-((3-((2,3-dihydro-1H-inden-2-yl)carbamoyl)pyrazin-2-yl)carbamoyl)cyclohexyl)carbamate] | 7930 | 26.3 | 31.5 | – | 56.8 | 82.7 | 508 | – | –
5 | CC(C)(C)OC(=O)NCC1CCN(C(=O)Nc2nccnc2C(=O)NC2Cc3ccccc3C2)CC1 [Compound 9, tert-butyl ((1-((3-((2,3-dihydro-1H-inden-2-yl)carbamoyl)pyrazin-2-yl)carbamoyl)piperidin-4-yl)methyl)carbamate] | 7530 | 353 | 382 | – | 2510 | – | 6570 | – | pKd [4]: < 5.29
6 | O=C(NC1Cc2ccccc2C1)c1nccnc1NC(=O)N1CCC(CCO)CC1 [Compound 12, N-(2,3-dihydro-1H-inden-2-yl)-3-(4-(2-hydroxyethyl)piperidine-1-carboxamido)pyrazine-2-carboxamide] | 6350 | 339 | 515 | – | 687 | 150 | 153 | – | –
7 | O=C(NC1Cc2ccccc2C1)c1nccnc1NC(=O)C1(O)CCCCC1 [Compound 15, N-(2,3-dihydro-1H-inden-2-yl)-3-(1-hydroxycyclohexane-1-carboxamido)pyrazine-2-carboxamide] | 3510 | – | – | – | 2700 | 21.8 | 1500 | – | –
8 | C[C@@H]1CCC[C@H](C)N1C(=O)Nc1nccnc1C(=O)NC1Cc2ccccc2C1 [Compound 19, N-(2,3-dihydro-1H-inden-2-yl)-3-(cis-2,6-dimethylpiperidine-1-carboxamido)pyrazine-2-carboxamide] | 8590 | 1180 | > 2860 | – | > 8720 | 1320 | > 10000 | – | –
9 | O=C(NC1Cc2ccccc2C1)c1nccnc1NC(=O)C1CCC1 [Compound 20, 3-(cyclobutanecarboxamido)-N-(2,3-dihydro-1H-inden-2-yl)pyrazine-2-carboxamide] | 6010 | 100 | 1260 | – | 738 | 13.2 | 3740 | – | –
10 | CC(C)(C)OC(=O)NCCCCCC(=O)NC1CCN(C(=O)Nc2nccnc2C(=O)NC2Cc3ccccc3C2)CC1 [Compound 41, tert-butyl (6-((1-((3-((2,3-dihydro-1H-inden-2-yl)carbamoyl)pyrazin-2-yl)carbamoyl)piperidin-4-yl)amino)-6-oxohexyl)carbamate] | 6910 | 182 | 227 | – | 139 | 561 | 2110 | – | –
11 | NCCCCCC(=O)NC1CCN(C(=O)Nc2nccnc2C(=O)NC2Cc3ccccc3C2)CC1 [Compound 42, 3-(4-(6-aminohexanamido)piperidine-1-carboxamido)-N-(2,3-dihydro-1H-inden-2-yl)pyrazine-2-carboxamide dihydrochloride] | 9080 | 295 | 433 | – | – | 780 | 3120 | – | Kd ([4]; read-out: HsProRS (KD [nM]) −): 674 nM
12 | CC(C)(C)OC(=O)NCCCCCC(=O)NCC1CCN(C(=O)Nc2nccnc2C(=O)NC2Cc3ccccc3C2)CC1 [Compound 43, tert-butyl (6-(((1-((3-((2,3-dihydro-1H-inden-2-yl)carbamoyl)pyrazin-2-yl)carbamoyl)piperidin-4-yl)methyl)amino)-6-oxohexyl)carbamate] | 5090 | 320 | 375 | – | 611 | 2280 | 3330 | – | –
13 | NCCCCCC(=O)NCC1CCN(C(=O)Nc2nccnc2C(=O)NC2Cc3ccccc3C2)CC1 [Compound 44, 3-(4-((6-aminohexanamido)methyl)piperidine-1-carboxamido)-N-(2,3-dihydro-1H-inden-2-yl)pyrazine-2-carboxamide dihydrochloride] | 8910 | 270 | 321 | – | – | 330 | > 10000 | – | Kd ([4]; read-out: HsProRS (KD [nM]) −): 1570 nM
14 | O=C(NS(=O)(=O)N1CCN(C(=O)Nc2nccnc2C(=O)NC2Cc3ccccc3C2)CC1)O[C@H]1CCCNC1 [MAT445, (S)-piperidin-3-yl ((4-((3-((2,3-dihydro-1H-inden-2-yl)carbamoyl)pyrazin-2-yl)carbamoyl)piperazin-1-yl)sulfonyl)carbamate] | 7620 | – | – | < 5.00 | – | – | 1160 | 5.94 | pKd [3]: 5.95
15 | O=C(NS(=O)(=O)N1CCN(C(=O)Nc2nccnc2C(=O)NC2Cc3ccccc3C2)CC1)O[C@@H]1CCCNC1 [MAT447, (R)-piperidin-3-yl ((4-((3-((2,3-dihydro-1H-inden-2-yl)carbamoyl)pyrazin-2-yl)carbamoyl)piperazin-1-yl)sulfonyl)carbamate] | 6990 | – | – | < 5.00 | – | – | 6250 | 5.20 | pKd [3]: 5.61
16 | O=C(NS(=O)(=O)N1CCN(C(=O)Nc2nccnc2C(=O)NC2Cc3ccccc3C2)CC1)OC[C@@H]1CCCN1 [MAT457, (S)-pyrrolidin-2-ylmethyl ((4-((3-((2,3-dihydro-1H-inden-2-yl)carbamoyl)pyrazin-2-yl)carbamoyl)piperazin-1-yl)sulfonyl)carbamate hydrochloride] | 6570 | 118 | – | < 5.00 | – | – | 968 | 6.01 | pKd ([4]; KD for HsProRS): 8.01; pKd [4, 9]: 7.79; pKd [3]: 6.82
17 | O=C(NS(=O)(=O)N1CCN(C(=O)Nc2nccnc2C(=O)NC2Cc3ccccc3C2)CC1)OC[C@H]1CCCN1 [MAT459, (R)-pyrrolidin-2-ylmethyl ((4-((3-((2,3-dihydro-1H-inden-2-yl)carbamoyl)pyrazin-2-yl)carbamoyl)piperazin-1-yl)sulfonyl)carbamate] | 7080 | 552 | – | < 5.00 | – | – | 4620 | 5.34 | pKd [4, 9]: 6.61; pKd ([4]; absence of proline, read-out: KD for HsProRS): 6.98; pKd [3]: 6.13
18 | O=C(CCCCCNC(=S)Nc1ccccc1)NC1CCN(C(=O)Nc2nccnc2C(=O)NC2Cc3ccccc3C2)CC1 [MAT482] | 5540 | – | 78.3 | – | 516 | 1360 | 2720 | – | Kd ([3]; read-out: PfcProRS (KD [nM]) +proline, 100 μM Pro): 61.6 nM
19 | Nc1ncnc2c1ncn2[C@@H]1O[C@H](COS(=O)(=O)NC(=O)[C@@H]2CCCN2)[C@@H](O)[C@H]1O [ProSA (25), 5′-O—[N-(L-Prolyl)-sulfamoyl]adenosine, reference compound] | 137 | – | – | – | – | – | 151 | – | –
